Reference: patent US9227971B2, “Pyrazolo[1,5-a]pyrimidine compounds as mTOR inhibitors” (Merck Sharp & Dohme Corp., priority 2010, dated 2016)
Where two headings read alike, the source gives them in different places.

Key:
[1] = test system: phosphorylated 4E-BP1 Thr37/46 (p4E-BP1 Thr37/46), mTORC1 activity, PC3 cells; experiment: mTOR target engagement assay, immunofluorescent cell-based, p4E-BP1 Thr37/46 readout (mTORC1 activity); details: read-out: p4E-BP1 Thr37/46 IC50
Outline: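 Read-out is fluorescence intensity of immunostained p4E-BP1 Thr37/46 in fixed PC3 cells, fitted to a logistic curve for IC50 with DMSO-only wells as top. Cells had been exposed to serial compound dilutions for ninety minutes at 37° C in 5% FBS medium with 0.25% DMSO.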

[2] = test system: phosphorylated AKT Ser473 (pAKT S473), mTORC2 activity, PC3 cells; experiment: mTOR target engagement assay, immunofluorescent cell-based, pAKT S473 readout (mTORC2 activity)
Outline: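 After blocking, cells were stained overnight at 4 °C with anti-pAKT S473 antibody, then a fluorescent secondary; inhibition was read as reduced fluorescence intensity.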

[3] = Homo sapiens, PC-3, Table 7-8, PC3 cells
[4] = PC3 cells, compound treatment ninety minutes at 37° C.
[5] = Homo sapiens, PC-3, Table 7-4, PC3 cells
[6] = Homo sapiens, PC-3, Table 6-1, PC3 cells
[7] = Homo sapiens, PC-3, PC3 cells, compound treatment ninety minutes at 37° C.
[8] = Homo sapiens, PC-3, Table 3-1, PC3 cells

Compound `CC(=O)c1c([C@@H]2C[C@H]3CC[C@@H](C2)N3C(=O)c2nnc[nH]2)nc2c(-c3ccc(C4(O)COC4)nc3)cnn2c1N` [Compound 7.45, 1-(5-((1R,3s,5S)-8-(4H-1,2,4-triazole-3-carbonyl)-8-azabicyclo[3.2.1]octan-3-yl)-7-amino-3-(6-(3-hydroxyoxetan-3-yl)pyridin-3-yl)pyrazolo[1,5-a]pyrimidin-6-yl)ethanone] has an IC50 [1, 3] of 100 to 1000 nM and an IC50 [2, 3] of 100 to 1000 nM.

With “(1R,3s,5S)-2-methoxyethyl 3-(6-acetyl-7-amino-3-(6-(1-methyl-1H-pyrazol-3-yl)pyridin-3-yl)pyrazolo[1,5-a]pyrimidin-5-yl)-8-azabicyclo[3.2.1]octane-8-carboxylate [Compound 1.1.109]” the IC50 [1, 4] was 1000 to 10000 nM and the IC50 [2, 4] was 1000 to 10000 nM.

Work on `CC(=O)c1c([C@@H]2C[C@H]3CC[C@@H](C2)N3C(=O)c2nnc[nH]2)nc2c(-c3ccc([C@@H](C)O)nc3)cnn2c1N` [Compound 7.33, 1-(5-((1R,3s,5S)-8-(4H-1,2,4-triazole-3-carbonyl)-8-azabicyclo[3.2.1]octan-3-yl)-7-amino-3-(6-((R)-1-hydroxyethyl)pyridin-3-yl)pyrazolo[1,5-a]pyrimidin-6-yl)ethanone] yielded an IC50 [1, 5] of 100 to 1000 nM and an IC50 [2, 5] of 100 to 1000 nM.

`CS(=O)(=O)c1c([C@@H]2C[C@H]3CC[C@@H](C2)N3C(=O)CO)nc2c(-c3ccc(C(O)C(F)(F)F)nc3)cnn2c1N` (stereo partly drawn) [Compound 7.70, 1-((1R,3s,5S)-3-(7-amino-6-(methylsulfonyl)-3-(6-(2,2,2-trifluoro-1-hydroxyethyl)pyridin-3-yl)pyrazolo[1,5-a]pyrimidin-5-yl)-8-azabicyclo[3.2.1]octan-8-yl)-2-hydroxyethanone] was tested, and the IC50 ([1]; Homo sapiens, PC-3, PC3 cells) was 1000 to 10000 nM and the IC50 ([2]; Homo sapiens, PC-3, PC3 cells) was 1000 to 10000 nM.

`CC(=O)c1c([C@@H]2C[C@H]3CC[C@@H](C2)N3C(=O)c2nnc(C)[nH]2)nc2c(-c3ccc(-c4ncc[nH]4)nc3)cnn2c1N` [Compound 6.21, 1-(3-(6-(1H-imidazol-2-yl)pyridin-3-yl)-7-amino-5-((1R,3s,5S)-8-(5-methyl-4H-1,2,4-triazole-3-carbonyl)-8-azabicyclo[3.2.1]octan-3-yl)pyrazolo[1,5-a]pyrimidin-6-yl)ethanone] showed an IC50 [1, 6] of 1 to 100 nM and an IC50 [2, 6] of 1 to 100 nM.

Work on `CS(=O)(=O)c1c([C@@H]2C[C@H]3CC[C@@H](C2)N3C(=O)c2nnc[nH]2)nc2c(-c3ccc(CO)c(F)c3)cnn2c1N` [Compound 8.42, ((1R,3s,5S)-3-(7-amino-3-(3-fluoro-4-(hydroxymethyl)phenyl)-6-(methylsulfonyl)pyrazolo[1,5-a]pyrimidin-5-yl)-8-azabicyclo[3.2.1]octan-8-yl)(4H-1,2,4-triazol-3-yl)methanone] yielded an IC50 ([1]; Homo sapiens, PC-3, PC3 cells) of 1 to 100 nM and an IC50 ([2]; Homo sapiens, PC-3, PC3 cells) of 1 to 100 nM.

`CS(=O)(=O)c1c([C@@H]2C[C@H]3CC[C@@H](C2)N3C(=O)c2nnc[nH]2)nc2c(-c3ccc(C4(O)CCCC4)nc3)cnn2c1N` [Compound 7.46, ((1R,3s,5S)-3-(7-amino-3-(6-(1-hydroxycyclopentyl)pyridin-3-yl)-6-(methylsulfonyl)pyrazolo [1,5-a]pyrimidin-5-yl)-8-azabicyclo[3.2.1]octan-8-yl)(4H-1,2,4-triazol-3-yl)methanone] showed an IC50 [1, 3] of 1 to 100 nM and an IC50 [2, 3] of 1 to 100 nM.

`N#C/N=C(\N)N1[C@@H]2CC[C@H]1C[C@H](c1cc(N)n3ncc(-c4ccc(-c5ccccc5)nc4)c3n1)C2` [Compound 8.86] was tested, and the IC50 ([1]; Homo sapiens, PC-3, PC3 cells) was 1000 to 10000 nM and the IC50 ([2]; Homo sapiens, PC-3, PC3 cells) was 1000 to 10000 nM.

`COCc1c([C@@H]2C[C@H]3CC[C@@H](C2)N3C(=O)c2nnc[nH]2)nc2c(-c3ccc(-c4ccc(OC)cc4)nc3)cnn2c1N` [Compound 5.6, ((1R,3s,5S)-3-(7-amino-6-(methoxymethyl)-3-(6-(4-methoxyphenyl)pyridin-3-yl)pyrazolo[1,5-a]pyrimidin-5-yl)-8-azabicyclo[3.2.1]octan-8-yl)(4H-1,2,4-triazol-3-yl)methanone] gave an IC50 [1, 7] of 1 to 100 nM and an IC50 [2, 7] of 1 to 100 nM.

`CC(=O)N1[C@@H]2CC[C@H]1C[C@H](c1nc3c(-c4ccc(-c5nc(C)cs5)nc4)cnn3c(N)c1S(C)(=O)=O)C2` [Compound 3.190, 1-((1R,3a,5S)-3-(7-amino-6-(methylsulfonyl)-3-(6-(4-methylthiazol-2-yl)pyridin-3-yl)pyrazolo[1,5-a]pyrimidin-5-yl)-8-azabicyclo[3.2.1]octan-8-yl)ethanone] gave an IC50 [1, 8] of 1000 to 10000 nM and an IC50 [2, 8] of 1000 to 10000 nM.

`CC(=O)c1c([C@@H]2C[C@H]3CC[C@@H](C2)N3C(=O)c2nnc[nH]2)nc2c(-c3cnc(C(C)(C)O)c(C)c3)cnn2c1N` [Compound 7.24, 1-(5-((1R,3s,5S)-8-(4H-1,2,4-triazole-3-carbonyl)-8-azabicyclo[3.2.1]octan-3-yl)-7-amino-3-(6-(2-hydroxypropan-2-yl)-5-methylpyridin-3-yl)pyrazolo[1,5-a]pyrimidin-6-yl)ethanone] gave an IC50 [1, 7] of 1 to 100 nM and an IC50 [2, 7] of 1 to 100 nM.

For `COc1ccc(-c2ccc(-c3cnn4c(N)cc([C@@H]5C[C@H]6CC[C@@H](C5)N6C(=O)c5nnc[nH]5)nc34)cn2)cc1F` [Compound 2.5, ((1R,3s,5S)-3-(7-amino-3-(6-(3-fluoro-4-methoxyphenyl)pyridin-3-yl)pyrazolo[1,5-a]pyrimidin-5-yl)-8-azabicyclo[3.2.1]octan-8-yl)(4H-1,2,4-triazol-3-yl)methanone], the IC50 [1, 7] was 1000 to 10000 nM and the IC50 [2, 7] was 100 to 1000 nM.

`CC(=O)c1c([C@@H]2C[C@H]3CC[C@@H](C2)N3C(=O)c2nnc[nH]2)nc2c(-c3ccc(C#CC4CC4)nc3)cnn2c1N` [Compound 8.60, 1-(5-((1R,3s,5S)-8-(4H-1,2,4-triazole-3-carbonyl)-8-azabicyclo[3.2.1]octan-3-yl)-7-amino-3-(6-(cyclopropylethynyl)pyridin-3-yl)pyrazolo[1,5-a]pyrimidin-6-yl)ethanone] gave an IC50 ([1]; Homo sapiens, PC-3, PC3 cells) of 100 to 1000 nM and an IC50 ([2]; Homo sapiens, PC-3, PC3 cells) of 100 to 1000 nM.

`CNC(=O)Nc1ccc(-c2cnn3c(N)c(C(C)=O)c([C@@H]4C[C@H]5CC[C@@H](C4)N5C(=O)c4ncn[nH]4)nc23)cn1` [Compound 8.75, 1-(5-(5-((1R,3s,5S)-8-(1H-1,2,4-triazole-5-carbonyl)-8-azabicyclo[3.2.1]octan-3-yl)-6-acetyl-7-aminopyrazolo[1,5-a]pyrimidin-3-yl)pyridin-2-yl)-3-methylurea] was tested, and the IC50 ([1]; Homo sapiens, PC-3, PC3 cells) was 100 to 1000 nM and the IC50 ([2]; Homo sapiens, PC-3, PC3 cells) was 1 to 100 nM.

For `CS(=O)(=O)c1c([C@H]2CC3CC[C@H](C2)N3C(=O)c2nnc[nH]2)nc2c(-c3ccc(C4CCCCC4)nc3)cnn2c1N` [Compound 3.165, ((1R,3s,5S)-3-(7-amino-3-(6-cyclohexylpyridin-3-yl)-6-(methylsulfonyl)pyrazolo[1,5-a]pyrimidin-5-yl)-8-azabicyclo[3.2.1]octan-8-yl)(4H-1,2,4-triazol-3-yl)methanone], the IC50 [1, 8] was 100 to 1000 nM and the IC50 [2, 8] was 100 to 1000 nM.

`CS(=O)(=O)c1c([C@@H]2C[C@H]3CC[C@@H](C2)N3c2nnc[nH]2)nc2c(-c3ccc(-c4ccccc4)nc3)cnn2c1N` [Compound 3.21, 5-((1R,3s,5S)-8-(4H-1,2,4-triazol-3-yl)-8-azabicyclo[3.2.1]octan-3-yl)-6-(methylsulfonyl)-3-(6-phenylpyridin-3-yl)pyrazolo[1,5-a]pyrimidin-7-amine] gave an IC50 ([1]; Table 3-1, PC3 cells) of 1000 to 10000 nM and an IC50 ([2]; Table 3-1, PC3 cells) of 1000 to 10000 nM.

For `CS(=O)(=O)c1c([C@@H]2C[C@H]3CC[C@@H](C2)N3C(=O)CO)nc2c(-c3ccc(C4(O)CCCC4)nc3)cnn2c1N` [Compound 7.47, 1-((1R,3s,5S)-3-(7-amino-3-(6-(1-hydroxycyclopentyl)pyridin-3-yl)-6-(methylsulfonyl)pyrazolo [1,5-a]pyrimidin-5-yl)-8-azabicyclo[3.2.1]octan-8-yl)-2-hydroxyethanone], the IC50 [1, 3] was 100 to 1000 nM and the IC50 [2, 3] was 100 to 1000 nM.

Work on `CCC(O)c1ccc(-c2cnn3c(N)c(C(C)=O)c([C@@H]4C[C@H]5CC[C@@H](C4)N5C(=O)c4nnc[nH]4)nc23)cn1` (stereo partly drawn) [Compound 7.3] yielded an IC50 [1, 7] of 100 to 1000 nM and an IC50 [2, 7] of 1 to 100 nM.

`COCCNC(=O)N1[C@@H]2CC[C@H]1C[C@H](c1nc3c(-c4ccc(-c5ccccc5)nc4)cnn3c(N)c1C1CC1)C2` [Compound 4.7, (1R,3s,5S)-3-(7-amino-6-cyclopropyl-3-(6-phenylpyridin-3-yl)pyrazolo[1,5-a]pyrimidin-5-yl)-N-(2-methoxyethyl)-8-azabicyclo[3.2.1]octane-8-carboxamide] gave an IC50 [1, 7] of 100 to 1000 nM and an IC50 [2, 7] of 100 to 1000 nM.

In the case of “((1R,3s,5S)-3-(7-amino-3-(6-(1-methyl-(D3)-1H-pyrazol-3-yl)pyridin-3-yl)-6-(methylsulfonyl)pyrazolo[1,5-a]pyrimidin-5-yl)-8-azabicyclo[3.2.1]octan-8-yl)(4H-1,2,4-triazol-3-yl)methanone [Compound 3.70]”, the IC50 ([1]; Table 3-1, PC3 cells) is reported as 100 to 1000 nM and the IC50 ([2]; Table 3-1, PC3 cells) is reported as 100 to 1000 nM.

`CC(=O)c1c([C@@H]2C[C@H]3CC[C@@H](C2)N3C(=O)CO)nc2c(-c3ccc(-c4cc[nH]n4)nc3)cnn2c1N` [Compound 1.1.75, 1-((1R,3s,5S)-3-(3-(6-(1H-pyrazol-3-yl)pyridin-3-yl)-6-acetyl-7-aminopyrazolo[1,5-a]pyrimidin-5-yl)-8-azabicyclo[3.2.1]octan-8-yl)-2-hydroxyethanone] was tested, and the IC50 [1, 7] was 1 to 100 nM and the IC50 [2, 7] was 1 to 100 nM.
